Source: US20030118577A1, “Use of analogues of superoxide dismutase for treating hepatocellular insufficiencies” (priority 2000, published 2003)

Tests used:
[1] = system: hepatic impairments induced by the administration of acetaminophen or of galactosamine; settings: simultaneous administration; EP 0333490; cited from earlier work
[2] = system: acute hepatic insufficiency induced by acetaminophen; assay: Survival of mice after intraperitoneal acetaminophen (acute hepatic insufficiency); settings: for percentage of surviving animals: Group XV: APAP 1000 mg/kg, CuDIPS 10 mg/kg (P)
[3] = system: hepatic impairments resulting from the administration of galactosamine-LPS; settings: prior administration; MIESEL et al. 1995; cited from earlier work

## CuZnSOD: copper-zinc superoxide dismutases, also known by the name superoxide dismutase-1
[1]
  hepatic impairments: reduced

## CC(C)c1cc(C(=O)[O-])c(O)c(C(C)C)c1.CC(C)c1cc(C(=O)[O-])c(O)c(C(C)C)c1.[Cu+2] [CuDIPS, Cu(II)-(diisopropylsalicylate)2]
[2]; APAP 1000 mg/kg, 2 hours before (P)
  effect on survival rate, administered preventively: does not significantly increase the survival rate
[2]; time 0 h
  percentage of surviving animals: 100%
[2]; time 6 h
  percentage of surviving animals: 100%
[2]; time 8 h
  percentage of surviving animals: 91.6%
[2]; time 9 h
  percentage of surviving animals: 83.3%
[2]; time 10 h
  percentage of surviving animals: 75%
[2]; time 11 h
  percentage of surviving animals: 58.3%
[2]; time 12 h
  percentage of surviving animals: 58.3%
[2]; time 13 h
  percentage of surviving animals: 41.6%
[2]; time 14 h
  percentage of surviving animals: 41.6%
[2]; time 15 h
  percentage of surviving animals: 41.6%
[2]; time 16 h
  percentage of surviving animals: 33.3%
[2]; time 17 h
  percentage of surviving animals: 33.3%
[2]; time 18 h
  percentage of surviving animals: 25%
[2]; time 20 h
  percentage of surviving animals: 25%
[2]; time 22 h
  percentage of surviving animals: 25%
[2]; time 24 h
  percentage of surviving animals: 25%

## C(=NCCCCN=Cc1ccccn1)c1ccccn1.[Cu+2].[O-][Cl+3]([O-])([O-])[O-] [CuPu(Py)2]
[3]
  hepatic impairments: reduced
